Reference: patent publication EP0353754A2, “Radioactively marked benzodiazepin derivates” (F. HOFFMANN-LA ROCHE AG, priority 1988, dated 1990)
Read-outs that look alike come from different tables or passages of the source.

Assay: Organ distribution of injected radioactivity in rats after I.V. injection
Assay type: in vivo, Ratten (weiblich, Wistar, spf)
Settings: Ratte; for tissue uptake at 2 min / tissue uptake at 10 min / tissue uptake at 20 min / tissue uptake at 40 min / tissue uptake at 1 h / tissue uptake at 6 h / tissue uptake at 15 h: rat, iv, read-out: Prozent der injizierten Aktivität pro Gramm des entsprechenden Organs; for tissue uptake at 1 h: 60′
Method: Es werden je 3 Ratten (weiblich, Wistar, spf) zu sieben verschiedenen Zeitpunkten (2′, 10′, 20′, 40′, 1h, 6h, 15h) gemessen. Das Gewicht der Tiere lag zwischen 113 und 144 g. Die Fütterung erfolgte ad libitum. Die I.V. injizierten Dosen variierten von 184 bis 355 µCi in jeweils 0,2 ml.

CCOC(=O)c1ncn2c1CN(C)C(=O)c1c([123I])cccc1-2 [Aethyl-7-¹²³Jod-5,6-dihydro-5-methyl-6-oxo-4H-imidazo[1,5-a][1,4]benzodiazepin-3-carboxylat]
Prozent der injizierten Aktivität in den entsprechend Organen (Totalkörper, 15h): 2,80 Prozent der injizierten Aktivität | tissue uptake at 2 min (bladder, Blase): 0.59 %ID/g | tissue uptake at 10 min (bladder, Blase): 1.07 %ID/g | tissue uptake at 20 min (bladder, Blase): 0.69 %ID/g | tissue uptake at 40 min (bladder, Blase): 0.24 %ID/g | tissue uptake at 1 h (bladder, Blase): 0.42 %ID/g | tissue uptake at 6 h (bladder, Blase): 0.57 %ID/g | tissue uptake at 15 h (bladder, Blase, 15h): 0.023 %ID/g | tissue uptake at 2 min (blood, Blut): 0.7 %ID/g | tissue uptake at 10 min (blood, Blut): 0.87 %ID/g | tissue uptake at 20 min (blood, Blut): 0.46 %ID/g | tissue uptake at 40 min (blood, Blut): 0.17 %ID/g | tissue uptake at 1 h (blood, Blut): 0.11 %ID/g | tissue uptake at 6 h (blood, Blut): 0.04 %ID/g | tissue uptake at 15 h (blood, Blut, 15h): 0.013 %ID/g | tissue uptake at 2 min (brain, Hirn): 2.12 %ID/g | tissue uptake at 10 min (brain, Hirn): 3.22 %ID/g | tissue uptake at 20 min (brain, Hirn): 2.99 %ID/g | tissue uptake at 40 min (brain, Hirn): 2.7 %ID/g | tissue uptake at 1 h (brain, Hirn): 1.8 %ID/g | tissue uptake at 6 h (brain, Hirn): 0.05 %ID/g | tissue uptake at 15 h (brain, Hirn, 15h): 0.001 %ID/g | tissue uptake at 2 min (heart, Herz): 0.86 %ID/g | tissue uptake at 10 min (heart, Herz): 0.66 %ID/g | tissue uptake at 20 min (heart, Herz): 0.3 %ID/g | tissue uptake at 40 min (heart, Herz): 0.1 %ID/g | tissue uptake at 1 h (heart, Herz): 0.06 %ID/g | tissue uptake at 6 h (heart, Herz): 0.02 %ID/g | tissue uptake at 15 h (heart, Herz, 15h): 0.007 %ID/g | tissue uptake at 2 min (intestine, Darm): 0.75 %ID/g | tissue uptake at 10 min (intestine, Darm): 1.1 %ID/g | tissue uptake at 20 min (intestine, Darm): 1.73 %ID/g | tissue uptake at 40 min (intestine, Darm): 2.02 %ID/g | tissue uptake at 1 h (intestine, Darm): 1.97 %ID/g | tissue uptake at 6 h (intestine, Darm): 1.55 %ID/g | tissue uptake at 15 h (intestine, Darm, 15h): 0.143 %ID/g | tissue uptake at 2 min (Femur): 0.54 %ID/g | tissue uptake at 10 min (Femur): 0.45 %ID/g | tissue uptake at 20 min (Femur): 0.24 %ID/g | tissue uptake at 40 min (Femur): 0.1 %ID/g | tissue uptake at 1 h (Femur): 0.07 %ID/g | tissue uptake at 6 h (Femur): 0.02 %ID/g | tissue uptake at 15 h (Femur, 15h): 0.007 %ID/g | tissue uptake at 2 min (kidney, Nieren): 2.68 %ID/g | tissue uptake at 10 min (kidney, Nieren): 7.06 %ID/g | tissue uptake at 20 min (kidney, Nieren): 5.26 %ID/g | tissue uptake at 40 min (kidney, Nieren): 1.35 %ID/g | tissue uptake at 1 h (kidney, Nieren): 0.68 %ID/g | tissue uptake at 6 h (kidney, Nieren): 0.03 %ID/g | tissue uptake at 15 h (kidney, Nieren, 15h): 0.01 %ID/g | tissue uptake at 2 min (liver, Leber): 2.38 %ID/g | tissue uptake at 10 min (liver, Leber): 5.66 %ID/g | tissue uptake at 20 min (liver, Leber): 2.62 %ID/g | tissue uptake at 40 min (liver, Leber): 0.58 %ID/g | tissue uptake at 1 h (liver, Leber): 0.19 %ID/g | tissue uptake at 6 h (liver, Leber): 0.02 %ID/g | tissue uptake at 15 h (liver, Leber, 15h): 0.016 %ID/g | tissue uptake at 2 min (lung, Lunge): 1.22 %ID/g | tissue uptake at 10 min (lung, Lunge): 0.87 %ID/g | tissue uptake at 20 min (lung, Lunge): 0.44 %ID/g | tissue uptake at 40 min (lung, Lunge): 0.15 %ID/g | tissue uptake at 1 h (lung, Lunge): 0.1 %ID/g | tissue uptake at 6 h (lung, Lunge): 0.03 %ID/g | tissue uptake at 15 h (lung, Lunge, 15h): 0.011 %ID/g | tissue uptake at 2 min (muscle, Muskel): 0.68 %ID/g | tissue uptake at 10 min (muscle, Muskel): 0.42 %ID/g | tissue uptake at 20 min (muscle, Muskel): 0.2 %ID/g | tissue uptake at 40 min (muscle, Muskel): 0.09 %ID/g | tissue uptake at 1 h (muscle, Muskel): 0.04 %ID/g | tissue uptake at 6 h (muscle, Muskel): 0.01 %ID/g | tissue uptake at 15 h (muscle, Muskel, 15h): 0.003 %ID/g | tissue uptake at 2 min (ovary, Ovar): 0.88 %ID/g | tissue uptake at 10 min (ovary, Ovar): 0.73 %ID/g | tissue uptake at 20 min (ovary, Ovar): 0.53 %ID/g | tissue uptake at 40 min (ovary, Ovar): 0.22 %ID/g | tissue uptake at 1 h (ovary, Ovar): 0.16 %ID/g | tissue uptake at 6 h (ovary, Ovar): 0.03 %ID/g | tissue uptake at 15 h (ovary, Ovar, 15h): 0.011 %ID/g | tissue uptake at 2 min (spleen, Milz): 0.6 %ID/g | tissue uptake at 10 min (spleen, Milz): 0.53 %ID/g | tissue uptake at 20 min (spleen, Milz): 0.29 %ID/g | tissue uptake at 40 min (spleen, Milz): 0.14 %ID/g | tissue uptake at 1 h (spleen, Milz): 0.07 %ID/g | tissue uptake at 6 h (spleen, Milz): 0.02 %ID/g | tissue uptake at 15 h (spleen, Milz, 15h): 0.01 %ID/g | tissue uptake at 2 min (stomach, Magen): 0.19 %ID/g | tissue uptake at 10 min (stomach, Magen): 0.41 %ID/g | tissue uptake at 20 min (stomach, Magen): 0.35 %ID/g | tissue uptake at 40 min (stomach, Magen): 0.27 %ID/g | tissue uptake at 1 h (stomach, Magen): 0.48 %ID/g | tissue uptake at 6 h (stomach, Magen): 0.73 %ID/g | tissue uptake at 15 h (stomach, Magen, 15h): 0.08 %ID/g | tissue uptake at 2 min (thyroid, Schilddrüse): 0.6 %ID/g | tissue uptake at 10 min (thyroid, Schilddrüse): 0.54 %ID/g | tissue uptake at 20 min (thyroid, Schilddrüse): 1.22 %ID/g | tissue uptake at 40 min (thyroid, Schilddrüse): 0.08 %ID/g | tissue uptake at 1 h (thyroid, Schilddrüse): 0.06 %ID/g | tissue uptake at 6 h (thyroid, Schilddrüse): 0.03 %ID/g | tissue uptake at 15 h (thyroid, Schilddrüse, 15h): 0.007 %ID/g
